SMILES strings stand for the structures. Read-outs that look alike come from different tables or passages of the source.

The values below come from patent US20070238694A1, “Purine compounds and methods of use thereof” (Inotek Pharmaceuticals Corporation, priority 2006, published 2007).

A short description of data set [1]: Plasma concentration of Compound 54 after intratracheal administration (HPLC). The format is in vivo, Sprague-Dawley rats. The conditions noted are these: Sprague-Dawley, rat, other: intratracheal (into the trachea via intubation), 2 mg per rat, 0.2 mL of 10 mg/mL solution in saline. The protocol: (§1) A 10 mg/mL solution of Compound 54 in saline was prepared and 0.2 mL of this solution was administered into the trachea of two Sprague-Dawley rats via intubation. Blood samples were taken at 10 minutes, 30 minutes, 60 minutes and 120 minutes, post-intubation. The plasma concentration of Compound 54 was measured at each of these time points using HPLC and the peak area of the amount of Compound X in the plasma was measured at each of these time points using LC/MS.

A short description of data set [2]: Peak area of Compound X in plasma after intratracheal administration of Compound 54 (LC/MS). Format: in vivo, Sprague-Dawley rats. How it is done:
as §1
The peak area of Compound X correlates with the plasma concentration of this compound.

As to `CNC(=O)[C@H]1O[C@@H](n2cnc3c(NC)nc(C#N)nc32)[C@@H]2OP(=O)(O)O[C@@H]21` [Compound 54], the concentration at 10 min is 830 ng/mL in data set [1] (Rat 1, 10 min post-intubation, read-out: Plasma Concentration Rat 1); 728 ng/mL in data set [1] (mean of two rats, 10 min post-intubation, read-out: Mean Plasma Concentration); 627 ng/mL in data set [1] (second rat column (head printed Rat 1), 10 min post-intubation, read-out: Plasma Concentration Rat 1). The concentration at 30 min in data set [1] (Rat 1, 30 min post-intubation, read-out: Plasma Concentration Rat 1) turned out to be 232 ng/mL; in data set [1] (mean of two rats, 30 min post-intubation, read-out: Mean Plasma Concentration), 217 ng/mL; in data set [1] (second rat column (head printed Rat 1), 30 min post-intubation, read-out: Plasma Concentration Rat 1), 202 ng/mL. The concentration at 60 min in data set [1] (Rat 1, 60 min post-intubation, read-out: Plasma Concentration Rat 1) amounted to 69.3 ng/mL; in data set [1] (mean of two rats, 60 min post-intubation, read-out: Mean Plasma Concentration), 47.6 ng/mL; in data set [1] (second rat column (head printed Rat 1), 60 min post-intubation, read-out: Plasma Concentration Rat 1), 26 ng/mL. In addition, the concentration at 120 min turned out to be 9.7 ng/mL in data set [1] (Rat 1, 120 min post-intubation, read-out: Plasma Concentration Rat 1); 9.6 ng/mL in data set [1] (mean of two rats, 120 min post-intubation, read-out: Mean Plasma Concentration); 9.5 ng/mL in data set [1] (second rat column (head printed Rat 1), 120 min post-intubation, read-out: Plasma Concentration Rat 1).
For `CNC(=O)[C@H]1O[C@@H](n2cnc3c(NC)nc(C#N)nc32)[C@H](O)[C@@H]1O` [Compound X], the “Mean Peak Area” value in data set [2] (120 min after intratracheal administration of Compound 54, Rat 2 value not available) was found to be 0.4; in data set [2] (mean of rats, 10 min after intratracheal administration of Compound 54), 102; in data set [2] (mean of rats, 30 min after intratracheal administration of Compound 54), 10.8; in data set [2] (mean of rats, 60 min after intratracheal administration of Compound 54), 3.1. The “Peak Area Rat 1” value in data set [2] (Rat 1, 10 min after intratracheal administration of Compound 54) worked out at 140; in data set [2] (Rat 1, 30 min after intratracheal administration of Compound 54), 9.6; in data set [2] (Rat 1, 60 min after intratracheal administration of Compound 54), 4.4; in data set [2] (Rat 1, 120 min after intratracheal administration of Compound 54), 0.4. The “Peak Area Rat 2” value in data set [2] (Rat 2, 10 min after intratracheal administration of Compound 54) stood at 64; in data set [2] (Rat 2, 30 min after intratracheal administration of Compound 54), 12; in data set [2] (Rat 2, 60 min after intratracheal administration of Compound 54), 1.8.
